Assay results reported in patent publication US9226912B2, “Acetyltanshinone IIA (ATA) as anticancer agent” (Nanyang Technological University, priority 2011, dated 2016).
One block for each compound: values may come before it.

Key:
[1] = test system: Bax and cytochrome c in MDA-MB-435 cells; assay: Bax translocation and cytochrome c release, cell fractionation Western blot and immunofluorescence; format: cell-based, human; details: 20 μM PG, 5 μM ATA, 24 h
Experimental: The concentration of ATA and PG were 5 μM and 20 μM, respectively. […] Scale bar=10 μm.
The value of CY/MT represents the ratio of integrated band intensity of cytosol fraction (CY) over corresponding integrated band intensity of mitochondrial fraction (MT). The ratio was normalized by the control group. Two proteins were used as internal markers to judge the quality of cell fractionation experiment: Cox IV for mitochondria and β-tubulin mainly for cytosol.
The subcellular localization changes of Bax and cytochrome c during ATA-induced apoptosis were first examined using immunofluorescence staining.
(§1) It was further tested, whether PG could prevent ROS generation after ATA treatment.

[2] = test system: ROS in MDA-MB-435 cells; assay: ROS generation and its prevention by PG; format: cell-based, human; details: pre-treating cells with 20 μM PG
Experimental: (A) PG prevented ATA-induced cell death. Three concentrations of PG were tested for their protective effects on ATA-induced cell death. The cell viability was measured by SRB assay. (* p<0.01). (B) PG protected ROS generation caused by ATA treatment. […] All the experiments were performed at least three times. The results presented in this figure are the average of three experiments. Error bar represents standard deviation. Scale bar=20 μm.
as §1

[3] = target: T1, ERα in BT474 cells (Homo sapiens, UniProt P03372); assay: ERα protein level by Western blotting; format: cell-based; details: 6 μM ATA or 1 μM fulvestrant
T1 construct: endogenous in cells; host or cells: BT474 human breast cancer cells
T1 sequence (P03372 whole entry): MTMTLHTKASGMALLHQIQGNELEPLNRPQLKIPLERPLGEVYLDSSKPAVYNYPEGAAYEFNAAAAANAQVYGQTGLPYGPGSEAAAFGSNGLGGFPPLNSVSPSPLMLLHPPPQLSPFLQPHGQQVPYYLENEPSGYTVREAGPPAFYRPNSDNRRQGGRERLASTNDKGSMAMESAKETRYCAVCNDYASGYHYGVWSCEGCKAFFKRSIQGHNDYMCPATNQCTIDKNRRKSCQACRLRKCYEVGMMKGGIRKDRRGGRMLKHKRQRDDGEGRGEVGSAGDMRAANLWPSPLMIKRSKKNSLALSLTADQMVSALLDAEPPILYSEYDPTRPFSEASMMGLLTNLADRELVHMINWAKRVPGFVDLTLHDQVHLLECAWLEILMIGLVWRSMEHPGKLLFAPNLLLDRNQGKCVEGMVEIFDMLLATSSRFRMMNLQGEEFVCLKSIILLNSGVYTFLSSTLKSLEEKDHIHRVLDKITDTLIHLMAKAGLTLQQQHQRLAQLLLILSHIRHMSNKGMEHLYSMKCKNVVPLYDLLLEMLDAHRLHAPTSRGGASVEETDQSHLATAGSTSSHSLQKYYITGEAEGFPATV
Experimental: Cells were treated with 6 μM ATA or 1 μM fulvestrant for indicated times and analyzed by Western blotting.

[4] = test system: MCF-7/HER2 cells; assay: Growth inhibition of HER2 over-expressing cells at 72 h; format: cell-based; details: paclitaxel 1×10^−3 μM to 10 μM; ATA 0.78 μM to 6.25 μM
Description: The efficacy of ATA on MCF-7 cells with over-expressed HER2 protein was investigated.

[5] = test system: MCF-7 cells; assay: Combinatorial effect of ATA with paclitaxel, MTT assay; format: cell-based; details: Homo sapiens, MCF7, paclitaxel alone at 1 nM, read-out: cell growth inhibition rate
Experimental: The effect was determined by measuring the rates of cell growth inhibition using MTT assay. (* p<0.01, compared with cells treated with either paclitaxel alone or ATA alone).
The inventors of the present invention have shown for the first time that ATA can increase the cytotoxic effect of paclitaxel. In the tests (FIG. 16) with five concentrations of ATA at 10, 5, 2.5, 1.25, 0.625 μM and five concentrations of paclitaxel at 1000, 100, 10, 1, 0.1 nM were used.

[6] = test system: ESR1 mRNA in MCF-7 cells; assay: Real-time PCR of ESR1 mRNA level; details: 100 pM estrogen plus 6 μM compound, 24 h
Experimental: MCF-7 cells cultured in the charcoal-stripped medium were used as control for the 0 h sample.

[7] = test system: GREB1 mRNA in MCF-7 cells; assay: Real-time PCR of GREB1 mRNA level; details: 100 pM estrogen plus 6 μM compound, 24 h, normal medium
Experimental: In order to do so, the mRNA level of a non-ER regulated gene GAPDH was measured and used as a reference. MCF-7 cells cultured in the charcoal-stripped medium were used as a control.

[8] = test system: HeLa cells; assay: ATA-induced cell death by cell counting under a microscope; format: cell-based; details: 2 μM z-VAD-fmk pre-treatment 2 h, then 10 or 20 μM ATA, 24 h and 48 h
Experimental: HeLa cells were treated with 10 μM ATA for 12, 24, 36, and 48 h. The β-tubulin protein was probed as a loading control. […] HeLa cells were pre-treated with 2 μM pan-caspase inhibitor (z-VAD-fmk) for 2 h before ATA addition. Then 10 μM or 20 μM ATA were added. After 24 h and 48 h treatment, the number of died cells was counted under a microscope. (* p<0.01, compared with cells treated with ATA only). Control: cells without any treatment.
Overexpression of Bcl-2 inhibited ATA-induced cell death. HeLa cells transfected with either yellow fluorescent protein (YFP) (vector control) or YFP-Bcl-2 (Bcl-2) were treated with ATA at 10 or 20 μM. The percentage of cell death from YFP-positive cells was determined by cell counting under a fluorescence microscope. (* p<0.01, compared with vector control groups).
The inventors of the present invention have shown for the first time that ATA can activate the apoptotic pathway in cancer cells. […]
HeLa cells transfected with YFP-Bcl-2 or YFP only were treated with 10 μM or 20 μM ATA. After 24 h or 48 h treatment, the percentage of cell death in each sample was calculated by counting the numbers of fluorescence-positive cells either live (attached with a normal cell morphology) or dead (detached with a shrunk morphology) under a fluorescence microscope. […]

Compound: CCCOC(=O)c1cc(O)c(O)c(O)c1 [PG, propyl gallate, reference compound]
effect on Bax translocation and cytochrome c release in ATA-treated cells [1]: could effectively prevent | effect on ATA-induced ROS level increase [2]: completely prevented

level of ERα [3]: only reduced ERα
Compound: C[C@]12CC[C@@H]3c4ccc(O)cc4C[C@@H](CCCCCCCCC[S+]([O-])CCCC(F)(F)C(F)(F)F)[C@H]3[C@@H]1CC[C@@H]2O (stereo partly drawn) [Fulvestrant, fulvestrant, reference compound]

Compound: CC(=O)O[C@H]1C(=O)[C@@]2(C)[C@H]([C@H](OC(=O)c3ccccc3)[C@]3(O)C[C@H](OC(=O)[C@H](O)[C@@H](NC(=O)c4ccccc4)c4ccccc4)C(C)=C1C3(C)C)[C@]1(OC(C)=O)CO[C@@H]1C[C@@H]2O [paclitaxel, reference compound]
sensitivity of MCF-7/HER2 cells compared with MCF-7 cells [4]: more resistance to paclitaxel than MCF-7 cells | inhibition at 0.001 µM [5]: ~40%

Compound: CC/C(=C(\c1ccccc1)c1ccc(OCCN(C)C)cc1)c1ccccc1 [tamoxifen, reference compound]
level of ESR1 mRNA over control ([6]; charcoal-stripped medium): about 70% | level of ESR1 mRNA over control ([6]; normal medium): only slightly decreased | GREB1 level of the control [7]: comparable

Compound: z-VAD-fmk [reference compound]
effect on ATA-induced cell death [8]: could be inhibited
